Converted amounts (≈) assume the structure as drawn. “Also recorded” adds a separate entry of the source. Structures can show the parent of a compound that is named as a salt. Where two headings read alike, the source gives them in different places.
Assays:
Format in all cases: physicochemical
[1] = Primary salt screen: XRPD pattern after drying and after 40° C./75% RH; settings: for Post-Drying (XRPD pattern): oven at 40° C. for about 24 hours; for Comments (stability): salt screen summary; for Post 40° C./75% RH (XRPD pattern): stability chamber at 40° C./75% RH for about 24 hours
Protocol: The following procedure was used: • Approximately 30 mg of 1-methyl-1,4,5,10-tetrahydropyrazolo[3,4-b][1,5]benzodiazepine freebase was weighed into 5×1.5 mL glass vials. • 300 μL of selected solvent system was added to each vial to form a mobile slurry, and a beige slurry was observed. • 1.05 (or 0.525 for the hemi experiments) equivalents of acid counterion (see Table 1) was added to each sample and initial observations were recorded. • The samples were temperature cycled between ambient and 40° C. in 4-hour cycles for about 72 hours. • The samples were collected, and observations made. • Samples in which solids were observed were filtered via centrifugation and the solids were loaded onto a multi-well XRPD plate and analyzed by XRPD. • Samples in which no solids were observed were uncapped and left undisturbed to allow evaporation at ambient temperature.

[2] = Dynamic / gravimetric vapour sorption (DVS/GVS) hygroscopicity; settings: for hygroscopicity: DVS, 25° C.
Protocol: Approximately, 10-20 mg of sample was placed into a mesh vapour sorption balance pan and loaded into a DVS Intrinsic dynamic vapour sorption balance by Surface Measurement Systems. The sample was subjected to a ramping profile from 40-90% relative humidity (RH) at 10% increments, maintaining the sample at each step until a stable weight had been achieved (dm/dt 0.004%, minimum step length 30 minutes, maximum step length 500 minutes) at 25° C. After completion of the sorption cycle, the sample was dried using the same procedure to 0% RH and then a second sorption cycle back to 40% RH. Two cycles were performed. The weight change during the sorption/desorption cycles were plotted, allowing for the hygroscopic nature of the sample to be determined. XRPD analysis was then carried out on any solid retained.
Approximately 10-20 mg of sample was placed into a mesh vapour sorption balance pan and loaded into an IGASorp Moisture Sorption Analyser balance by Hiden Analytical. The sample was subjected to a ramping profile from 40-90% relative humidity (RH) at 10% increments, maintaining the sample at each step until a stable weight had been achieved (98% step completion, minimum step length 30 minutes, maximum step length 60 minutes) at 25° C. After completion of the sorption cycle, the sample was dried using the same procedure to 0% RH, and finally taken back to the starting point of 40% RH. Two cycles were performed. The weight change during the sorption/desorption cycles were plotted, allowing for the hygroscopic nature of the sample to be determined.

[3] = 1-week stability studies (XRPD, HPLC)
Protocol: The isolated 1-methyl-1,4,5,10-tetrahydropyrazolo[3,4-b][1,5]benzodiazepine freebase was characterized by TG/DTA, DSC, DVS with post-DVS, XRPD, HPLC, ^1H NMR and LC-MS, as per the methods detailed above. The 1-methyl-1,4,5,10-tetrahydropyrazolo[3,4-b][1,5]benzodiazepine freebase was stored at 40° C./75% relative humidity (RH) for 1 week to determine the stability of the material at increased RH and to identify potential hydrate formation.
One-week stability studies were conducted on the freebase (example 1), phosphate form 1 (example 3) and L-tartrate form 1 (example 5) salts using the following procedures: • Approximately 20 mg of each form was weighed into 3×2 mL glass vials. • One vial for each form was stored under the following conditions for 1-week: • 1. Ambient temperature, light and humidity (unsealed vial) • 2. 40° C./75% RH (unsealed vial) • 3. 80° C. (sealed vial) • The samples were collected after 1-week and observations were made. • The solids were analyzed by XRPD and HPLC.

[4] = Thermodynamic solubility in PBS buffer pH 7.4; settings: for solubility: PBS buffer at pH 7.4, ambient temperature, about 24 hours, HPLC; for pH (t = 24 h): mother liquor of PBS pH 7.4 slurry
Protocol: The thermodynamic solubility of freebase (example 1), phosphate form 1 (example 3) and L-tartrate form 1 (example 5) were assessed in phosphate buffered saline (PBS) buffer at pH 7.4 according to the following procedure: • Approximately 30 mg of each form was weighed into 2 mL glass vials. • 100 μL of buffer solution was added to each vial until partial dissolution was observed. • The observed slurries were agitated at ambient temperature for about 24 hours. • The samples were collected, and observations were recorded. • The samples were filtered via centrifugation. • The pH of the mother liquors were recorded. • The concentration of the mother liquors were recorded by HPLC.

[5] = Salt disproportionation studies in deionized water; settings: about 24 hours; for salt disproportionation: slurry in deionized water, ambient temperature
Protocol: (§1) The following procedure was used during the salt disproportionation studies: • Approximately 20 mg of phosphate form 1 (Example 3) and L-tartrate form 1 (Example 5) were weighed into 2 mL glass vials. • Deionized water was added to each sample in 100 μL aliquots until a mobile slurry was observed. • The slurries were agitated at ambient temperature for about 24 hours. • The slurries were collected and filtered via centrifugation. • The isolated solids were analyzed by XRPD. • The pH of the mother liquors were recorded.

[6] = Hydration studies in methanol/water mixtures; settings: MeOH/water mixtures, water activity 0.2, 0.6, 0.8, about 24 hours
Protocol: as §1, with “the hydration” for “the salt disproportionation”, “• Selected methanol/deionized” for “• Deionized”, “water mixtures (see Table 5) were” for “water was”

[7] = 1 week, ambient temperature, light and humidity, 40° C./75% RH, 80° C.

Row | SMILES | Post-Drying (XRPD pattern) [1] | Post 40° C./75% RH (XRPD pattern) [1] | other results
1 | Cn1ncc2c1Nc1ccccc1NC2 [Tosylate pattern 1] | Pattern 1 | Pattern 1 | Comments (stability) [1]: Good
2 | Cn1ncc2c1Nc1ccccc1NC2 [Mesylate pattern 2] | Pattern 2 | Pattern 1 | 
3 | Cn1ncc2c1Nc1ccccc1NC2 [Besylate pattern 1] | Pattern 1 | Pattern 1, 2 | 
4 | Cn1ncc2c1Nc1ccccc1NC2 [Napsylate pattern 2] | Pattern 2 | Pattern 2 | 
5 | Cn1ncc2c1Nc1ccccc1NC2 [Hydrobromide pattern 1] | Pattern 1 | Pattern 1 | Comments (stability) [1]: Good
6 | Cn1ncc2c1Nc1ccccc1NC2 [Edisylate pattern 2] | Pattern 2 | Pattern 2 | 
7 | Cn1ncc2c1Nc1ccccc1NC2 [Maleate pattern 1] | Pattern 1 | Pattern 1 | 
8 | Cn1ncc2c1Nc1ccccc1NC2 [Esylate pattern 2] | Pattern 2 | Pattern 2 | 
9 | Cn1ncc2c1Nc1ccccc1NC2 [Isethionate pattern 2] | Pattern 2 | Pattern 3 | 
10 | Cn1ncc2c1Nc1ccccc1NC2 [Hydrobromide pattern 2] | Pattern 2 | Pattern 2 | 
11 | Cn1ncc2c1Nc1ccccc1NC2 [freebase, 1-Methyl-1,4,5,10-tetrahydropyrazolo[3,4-b][1,5]benzodiazepine] |  |  | change in form by XRPD post-DVS analysis [2]: No change in form; hygroscopicity by DVS ([2]; above 70% RH): hygroscopic; DVS mass increase ([2]; between 0 and 70% RH): about 0.11%; hygroscopicity by DVS ([2]; between 0 and 70% RH): non-hygroscopic; DVS mass increase ([2]; between 70 and 90% RH): about 2.74%; changes in form or purity ([3]; 1 week at 40° C./75% RH and 80° C.): no changes in form or purity; XRPD diffractogram after storage ([3]; 1 week under ambient conditions (temperature, light, humidity)): An additional peak was observed; changes in pattern/form by XRPD post-storage ([3]; 40° C./75% RH for 1 week): No significant changes in pattern; also recorded: no changes in form; stability under ambient light ([3]; conclusion of 1-week stability study): may be unstable under ambient light; changes in purity by HPLC ([3]; stored under ambient conditions): did not show any significant changes in purity; solubility [4]: 300 µg/mL (≈ 1500 µM); pH (t = 24 h) [4]: 7.32
12 | Cn1ncc2c1Nc1ccccc1NC2 [Tosylate pattern 3] | Pattern 3 | Pattern 3 | 
13 | Cn1ncc2c1Nc1ccccc1NC2 [Tosylate pattern 2] | Pattern 2 | Pattern 2 | 
14 | Cn1ncc2c1Nc1ccccc1NC2 [Sulfate pattern 3] | Pattern 3 | Pattern 3 | 
15 | Cn1ncc2c1Nc1ccccc1NC2 [Napsylate pattern 1] | Pattern 1 | Pattern 2 | Comments (stability) [1]: Good
16 | Cn1ncc2c1Nc1ccccc1NC2 [L-tartrate form 1, L-tartaric acid addition salt of 1-methyl-1,4,5,10-tetrahydropyrazolo[3,4-b][1,5]benzodiazepine] |  |  | change in form by XRPD post-DVS analysis [2]: No evidence of form changes or hydrate formation; hygroscopicity [2]: slightly hygroscopic; hygroscopicity ([2]; listed as L-tartrate salt): slightly hygroscopic; DVS mass increase ([2]; at 90% RH): about 0.6%; DVS mass increase ([2]; at 90% RH, listed as L-tartrate salt): about 0.6 wt. %; change in form by XRPD post-DVS analysis ([2]; listed as L-tartrate salt): no changes in form; thermal stability and hygroscopicity ([1]; conclusion of salt screen): acceptable thermal stability and hygroscopicity; Post-Drying (XRPD pattern) ([1]; listed as Tartrate pattern 1): Pattern 1; Comments (stability) [1]: Good; Post 40° C./75% RH (XRPD pattern) ([1]; listed as Tartrate pattern 1): Pattern 1; changes in form by XRPD [3, 7]: no changes in form; changes in purity by HPLC [3, 7]: did not identify any significant changes in purity; change in XRPD pattern ([5]; material slurried in water): No change in XRPD pattern; salt disproportionation [5]: Salt disproportionation was not observed; salt disproportionation ([5]; listed as L-tartrate): No evidence; change in XRPD pattern [6]: No change in XRPD pattern; hydrate formation [6]: Hydrate formation was not observed; hydrate formation ([6]; listed as L-tartrate): No evidence; solubility [4]: 6300 µg/mL; pH (t = 24 h) [4]: 3.36

Second part, led by results:

Row | Post-Drying (XRPD pattern) [1] | Post 40° C./75% RH (XRPD pattern) [1] | SMILES | other results
17 | Pattern 2 | Pattern 2 | Cn1ncc2c1Nc1ccccc1NC2 [Sulfate pattern 2] | 
18 | Pattern 3 | Deliquesced | Cn1ncc2c1Nc1ccccc1NC2 [Mesylate pattern 3] | 
19 | Pattern 1 | Pattern 3 | Cn1ncc2c1Nc1ccccc1NC2 [Isethionate pattern 1] | 
20 | Pattern 1 | Pattern 1 | Cn1ncc2c1Nc1ccccc1NC2 [Napadisylate pattern 1] | Comments (stability) [1]: Good
21 | Pattern 1 | Pattern 1/2 | Cn1ncc2c1Nc1ccccc1NC2 [Mesylate pattern 1] | 
22 | Pattern 1 | Pattern 2 | Cn1ncc2c1Nc1ccccc1NC2 [Edisylate pattern 1] | Comments (stability) [1]: Good
23 | Pattern 1 | Pattern 4 | Cn1ncc2c1Nc1ccccc1NC2 [Sulfate pattern 1] | 
24 | Pattern 2 | Pattern 2 | Cn1ncc2c1Nc1ccccc1NC2 [Napadisylate pattern 2] | 
25 | Pattern 1 | Pattern 2 | Cn1ncc2c1Nc1ccccc1NC2 [Esylate pattern 1] | 

Reference: patent US20240287074A1, “SALTS AND CRYSTALS” (Kinoxis Therapeutics Pty Ltd, priority 2020, published 2024)
